Species: Rattus norvegicus
Assay: DrugMatrix - Regimen: Daily Repeat
Assay type: toxicity, organism-based, Sprague-Dawley
Set-up: regimen Daily Repeat, gender Male, age 6-8 weeks
Settings: in vivo, po, route oral GAVAGE, […]; for URIC ACID / ALANINE AMINOTRANSFERASE / ALBUMIN / ALKALINE PHOSPHATASE / ASPARTATE AMINOTRANSFERASE / BLOOD UREA NITROGEN / CARBON DIOXIDE / CHLORIDE / CHOLESTEROL / CREATINE PHOSPHOKINASE / CREATININE / GLUCOSE / LACTATE DEHYDROGENASE / LIPASE / PHOSPHORUS / POTASSIUM / SODIUM / TOTAL BILIRUBIN / TOTAL PROTEIN: tissue Plasma
[1] = 1 mg/kg, 120 h, tissue Blood, dose level Low, time 5 day
[2] = 1 mg/kg, 120 h, dose level Low, time 5 day
[3] = 2.75 mg/kg, 72 h, tissue Blood, dose level High, time 3 day
[4] = 2.75 mg/kg, 72 h, dose level High, time 3 day
[5] = 2.75 mg/kg, 120 h, tissue Blood, dose level High, time 5 day
[6] = 2.75 mg/kg, 120 h, dose level High, time 5 day

C[C@H]1O[C@@H](O[C@H]2[C@@H](O)C[C@H](O[C@H]3[C@@H](O)C[C@H](O[C@H]4CC[C@@]5(C)[C@H](CC[C@@H]6[C@@H]5CC[C@]5(C)[C@@H](C7=CC(=O)OC7)CC[C@]65O)C4)O[C@@H]3C)O[C@@H]2C)C[C@H](O)[C@@H]1O [DIGITOXIN]
URIC ACID (1 mg/kg, 72 h, dose level Low, time 3 day): 0.53 mg/dL
ABSOLUTE BASOPHIL [1]: 0 CELLS/uL
ABSOLUTE EOSINOPHIL [1]: 0 CELLS/uL
ABSOLUTE LYMPHOCYTE [1]: 9184 CELLS/uL
ABSOLUTE MONOCYTE [1]: 19 CELLS/uL
ABSOLUTE SEGMENTED NEUTROPHIL [1]: 697 CELLS/uL
BASOPHIL [1]: 0%
EOSINOPHIL [1]: 0%
ERYTHROCYTE COUNT [1]: 5.65 x10E6/uL
HEMATOCRIT [1]: 35.27%
HEMOGLOBIN [1]: 13.63 G/DL
LEUKOCYTE COUNT [1]: 9.9 x10E3/uL
LYMPHOCYTE [1]: 93%
MEAN CORPUSCULAR HEMOGLOBIN [1]: 24.2 pg
MEAN CORPUSCULAR HEMOGLOBIN CONCENTRATION [1]: 38.7 G/DL
MEAN CORPUSCULAR VOLUME [1]: 62.47 fL
MONOCYTE [1]: 0.33%
NEUTROPHIL [1]: 6.67%
NUCLEATED RED BLOOD CELLS [1]: 0 /100WBC
PLATELET COUNT [1]: 833 x10E3/uL
ALANINE AMINOTRANSFERASE [2]: 84.33 u/L
ALBUMIN [2]: 4.1 G/DL
ALKALINE PHOSPHATASE [2]: 531.67 u/L
ASPARTATE AMINOTRANSFERASE [2]: 83 u/L
BLOOD UREA NITROGEN [2]: 10.67 mg/dL
CARBON DIOXIDE [2]: 34.67 mmol/L
CHLORIDE [2]: 98.33 MEQ/L
CHOLESTEROL [2]: 76.67 mg/dL
CREATINE PHOSPHOKINASE [2]: 231.33 u/L
CREATININE [2]: 0.16 mg/dL
GLUCOSE [2]: 154 mg/dL
LACTATE DEHYDROGENASE [2]: 122.67 u/L
LIPASE [2]: 10 u/L
PHOSPHORUS [2]: 10.13 mg/dL
POTASSIUM [2]: 5.23 MEQ/L
SODIUM [2]: 142.43 MEQ/L
TOTAL BILIRUBIN [2]: 0.23 mg/dL
TOTAL PROTEIN [2]: 5.83 G/DL
URIC ACID [2]: 0.43 mg/dL
ABSOLUTE BASOPHIL [3]: 0 CELLS/uL
ABSOLUTE EOSINOPHIL [3]: 0 CELLS/uL
ABSOLUTE LYMPHOCYTE [3]: 10747 CELLS/uL
ABSOLUTE MONOCYTE [3]: 27.33 CELLS/uL
ABSOLUTE SEGMENTED NEUTROPHIL [3]: 592.33 CELLS/uL
BASOPHIL [3]: 0%
EOSINOPHIL [3]: 0%
ERYTHROCYTE COUNT [3]: 5.51 x10E6/uL
HEMATOCRIT [3]: 33.6%
HEMOGLOBIN [3]: 13.4 G/DL
LEUKOCYTE COUNT [3]: 11.37 x10E3/uL
LYMPHOCYTE [3]: 94.33%
MEAN CORPUSCULAR HEMOGLOBIN [3]: 24.33 pg
MEAN CORPUSCULAR VOLUME [3]: 61.03 fL
MONOCYTE [3]: 0.33%
NEUTROPHIL [3]: 5.33%
NUCLEATED RED BLOOD CELLS [3]: 0 /100WBC
PLATELET COUNT [3]: 448 x10E3/uL
ALANINE AMINOTRANSFERASE [4]: 73 u/L
ALBUMIN [4]: 3.8 G/DL
ALKALINE PHOSPHATASE [4]: 350.67 u/L
ASPARTATE AMINOTRANSFERASE [4]: 101.33 u/L
BLOOD UREA NITROGEN [4]: 11.67 mg/dL
CARBON DIOXIDE [4]: 23.33 mmol/L
CHLORIDE [4]: 96 MEQ/L
CHOLESTEROL [4]: 61.33 mg/dL
CREATINE PHOSPHOKINASE [4]: 274.33 u/L
CREATININE [4]: 0.13 mg/dL
GLUCOSE [4]: 147.33 mg/dL
LACTATE DEHYDROGENASE [4]: 153 u/L
LIPASE [4]: 10.67 u/L
PHOSPHORUS [4]: 9.03 mg/dL
POTASSIUM [4]: 5.47 MEQ/L
SODIUM [4]: 137.1 MEQ/L
TOTAL BILIRUBIN [4]: 0.2 mg/dL
TOTAL PROTEIN [4]: 5.33 G/DL
URIC ACID [4]: 0.67 mg/dL
ABSOLUTE BASOPHIL [5]: 0 CELLS/uL
ABSOLUTE EOSINOPHIL [5]: 0 CELLS/uL
ABSOLUTE LYMPHOCYTE [5]: 7671 CELLS/uL
ABSOLUTE MONOCYTE [5]: 21 CELLS/uL
ABSOLUTE SEGMENTED NEUTROPHIL [5]: 641.33 CELLS/uL
BASOPHIL [5]: 0%
EOSINOPHIL [5]: 0%
ERYTHROCYTE COUNT [5]: 5.28 x10E6/uL
HEMATOCRIT [5]: 33.33%
HEMOGLOBIN [5]: 12.97 G/DL
LEUKOCYTE COUNT [5]: 8.33 x10E3/uL
LYMPHOCYTE [5]: 92%
MEAN CORPUSCULAR HEMOGLOBIN [5]: 24.53 pg
MEAN CORPUSCULAR VOLUME [5]: 63 fL
MONOCYTE [5]: 0.33%
NEUTROPHIL [5]: 7.67%
NUCLEATED RED BLOOD CELLS [5]: 0.33 /100WBC
PLATELET COUNT [5]: 1052.33 x10E3/uL
ALANINE AMINOTRANSFERASE [6]: 67.67 u/L
ALBUMIN [6]: 4.03 G/DL
ALKALINE PHOSPHATASE [6]: 389.33 u/L
ASPARTATE AMINOTRANSFERASE [6]: 88.67 u/L
BLOOD UREA NITROGEN [6]: 14.67 mg/dL
CARBON DIOXIDE [6]: 35 mmol/L
CHLORIDE [6]: 99.67 MEQ/L
CHOLESTEROL [6]: 57.33 mg/dL
CREATINE PHOSPHOKINASE [6]: 199.67 u/L
CREATININE [6]: 0.15 mg/dL
GLUCOSE [6]: 156.67 mg/dL
LACTATE DEHYDROGENASE [6]: 157.67 u/L
LIPASE [6]: 9.67 u/L
PHOSPHORUS [6]: 10.33 mg/dL
POTASSIUM [6]: 5.37 MEQ/L
SODIUM [6]: 144.23 MEQ/L
TOTAL BILIRUBIN [6]: 0.17 mg/dL
TOTAL PROTEIN [6]: 5.67 G/DL
URIC ACID [6]: 0.5 mg/dL
